Assay results as given in PubChem BioAssay AID1919015 (Molecular Pharmacology Branch, DTP, NCI, 2023).

System: OVCAR-5 complex spheroids with HUVEC/MSC, viability, % test/control
Test: Anticancer human tumor OVCAR-5 cell line growth inhibition [AhR];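 note: spheroids exposed to compounds for 7 days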;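 for viability, T/C: 100% = DMSO vehicle control wells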
Conditions: for IC50: curve of first compound; for viability, T/C: stronger effect = lower value
Outline: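 Spheroids combined tumor cells with HUVEC endothelial cells and human MSCs as stroma. AhR antagonists were paired with standard or investigational drugs, each dosed in half-log steps down from near clinical Cmax, or from 10 microM where Cmax was unknown.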

[1] = second compound 0.1 µM, first compound 0.000949 µM
[2] = second compound 0.1 µM, first compound 0.003 µM
[3] = second compound 0.1 µM, first compound 0.00949 µM
[4] = second compound 0.1 µM, first compound 0.03 µM
[5] = second compound 0.1 µM, first compound 0.0949 µM
[6] = second compound 0.1 µM, first compound 0.3 µM
[7] = second compound 0.316 µM, first compound 0.000949 µM
[8] = second compound 0.316 µM, first compound 0.003 µM
[9] = second compound 0.316 µM, first compound 0.00949 µM
[10] = second compound 0.316 µM, first compound 0.03 µM
[11] = second compound 0.316 µM, first compound 0.0949 µM
[12] = second compound 0.316 µM, first compound 0.3 µM
[13] = second compound 1 µM, first compound 0.000949 µM
[14] = second compound 1 µM, first compound 0.003 µM
[15] = second compound 1 µM, first compound 0.00949 µM
[16] = second compound 1 µM, first compound 0.03 µM
[17] = second compound 1 µM, first compound 0.0949 µM
[18] = second compound 1 µM, first compound 0.3 µM
[19] = second compound 3.16 µM, first compound 0.000949 µM
[20] = second compound 3.16 µM, first compound 0.003 µM
[21] = second compound 3.16 µM, first compound 0.00949 µM
[22] = second compound 3.16 µM, first compound 0.03 µM
[23] = second compound 3.16 µM, first compound 0.0949 µM
[24] = second compound 3.16 µM, first compound 0.3 µM
[25] = second compound 10 µM, first compound 0.000949 µM
[26] = second compound 10 µM, first compound 0.003 µM
[27] = second compound 10 µM, first compound 0.00949 µM
[28] = second compound 10 µM, first compound 0.03 µM
[29] = second compound 10 µM, first compound 0.0949 µM
[30] = second compound 10 µM, first compound 0.3 µM

CC(C)CC(NC(=O)C(Cc1ccccc1)NC(=O)c1cnccn1)B(O)O (stereo not given) + Cc1cncc(-c2nc(NCCc3c[nH]c4ccccc34)c3ncn(C(C)C)c3n2)c1
IC50 (second compound 0.1 µM): 58.1 nM | IC50 (second compound 0.316 µM): 57.2 nM | IC50 (second compound 1 µM): 54.6 nM | IC50 (second compound 3.16 µM): 41.1 nM | IC50 (second compound 10 µM): < 0.949 nM | viability, T/C [1]: 96.8% | viability, T/C [2]: 102% | viability, T/C [3]: 102% | viability, T/C [4]: 74.7% | viability, T/C [5]: 32.2% | viability, T/C [6]: 27.2% | viability, T/C [7]: 96.3% | viability, T/C [8]: 100% | viability, T/C [9]: 101% | viability, T/C [10]: 72.1% | viability, T/C [11]: 33.2% | viability, T/C [12]: 23.6% | viability, T/C [13]: 96.7% | viability, T/C [14]: 95% | viability, T/C [15]: 96.6% | viability, T/C [16]: 68.2% | viability, T/C [17]: 33.6% | viability, T/C [18]: 25% | viability, T/C [19]: 82.9% | viability, T/C [20]: 76.3% | viability, T/C [21]: 75.9% | viability, T/C [22]: 59.5% | viability, T/C [23]: 25.6% | viability, T/C [24]: 15.4% | viability, T/C [25]: 19.6% | viability, T/C [26]: 24.7% | viability, T/C [27]: 15% | viability, T/C [28]: 1.7% | viability, T/C [29]: 0.78% | viability, T/C [30]: 0.54%

CCc1c2c(nc3ccc(O)cc13)-c1cc3c(c(=O)n1C2)COC(=O)[C@]3(O)CC + Cc1cncc(-c2nc(NCCc3c[nH]c4ccccc34)c3ncn(C(C)C)c3n2)c1
IC50 (second compound 0.1 µM): 9.8 nM | IC50 (second compound 0.316 µM): 9.09 nM | IC50 (second compound 1 µM): 8.08 nM | IC50 (second compound 3.16 µM): 3.77 nM | IC50 (second compound 10 µM): < 0.949 nM | viability, T/C [1]: 83.8% | viability, T/C [2]: 59% | viability, T/C [3]: 46.3% | viability, T/C [4]: 44.8% | viability, T/C [5]: 23.4% | viability, T/C [6]: 9.85% | viability, T/C [7]: 80.1% | viability, T/C [8]: 57.1% | viability, T/C [9]: 47.4% | viability, T/C [10]: 42.3% | viability, T/C [11]: 22.8% | viability, T/C [12]: 9.22% | viability, T/C [13]: 73.1% | viability, T/C [14]: 51.4% | viability, T/C [15]: 50.7% | viability, T/C [16]: 42.3% | viability, T/C [17]: 21.5% | viability, T/C [18]: 9.57% | viability, T/C [19]: 56.8% | viability, T/C [20]: 43.8% | viability, T/C [21]: 48.4% | viability, T/C [22]: 40.2% | viability, T/C [23]: 21.9% | viability, T/C [24]: 8.5% | viability, T/C [25]: 4.99% | viability, T/C [26]: 5.37% | viability, T/C [27]: 9.12% | viability, T/C [28]: 7.96% | viability, T/C [29]: 4.98% | viability, T/C [30]: 2.23%

COc1cc(Nc2ncc3c(n2)-c2ccc(Cl)cc2C(c2c(F)cccc2OC)=NC3)ccc1C(=O)O + Cc1cncc(-c2nc(NCCc3c[nH]c4ccccc34)c3ncn(C(C)C)c3n2)c1
IC50 (second compound 0.1 µM): 2650 nM | IC50 (second compound 0.316 µM): 3040 nM | IC50 (second compound 1 µM): 2740 nM | IC50 (second compound 3.16 µM): 875 nM | IC50 (second compound 10 µM): < 31.6 nM | viability, T/C (second compound 0.1 µM, first compound 0.0316 µM): 88.1% | viability, T/C (second compound 0.1 µM, first compound 0.1 µM): 83.6% | viability, T/C (second compound 0.1 µM, first compound 0.316 µM): 63.6% | viability, T/C (second compound 0.1 µM, first compound 1 µM): 58% | viability, T/C (second compound 0.1 µM, first compound 3.16 µM): 49.2% | viability, T/C (second compound 0.1 µM, first compound 10 µM): 45.6% | viability, T/C (second compound 0.316 µM, first compound 0.0316 µM): 87.3% | viability, T/C (second compound 0.316 µM, first compound 0.1 µM): 80.9% | viability, T/C (second compound 0.316 µM, first compound 0.316 µM): 63.3% | viability, T/C (second compound 0.316 µM, first compound 1 µM): 59.9% | viability, T/C (second compound 0.316 µM, first compound 3.16 µM): 50.2% | viability, T/C (second compound 0.316 µM, first compound 10 µM): 42.5% | viability, T/C (second compound 1 µM, first compound 0.0316 µM): 85.5% | viability, T/C (second compound 1 µM, first compound 0.1 µM): 79% | viability, T/C (second compound 1 µM, first compound 0.316 µM): 60.5% | viability, T/C (second compound 1 µM, first compound 1 µM): 59.5% | viability, T/C (second compound 1 µM, first compound 3.16 µM): 48.3% | viability, T/C (second compound 1 µM, first compound 10 µM): 44.1% | viability, T/C (second compound 3.16 µM, first compound 0.0316 µM): 69.8% | viability, T/C (second compound 3.16 µM, first compound 0.1 µM): 68.6% | viability, T/C (second compound 3.16 µM, first compound 0.316 µM): 56.7% | viability, T/C (second compound 3.16 µM, first compound 1 µM): 49.8% | viability, T/C (second compound 3.16 µM, first compound 3.16 µM): 46.9% | viability, T/C (second compound 3.16 µM, first compound 10 µM): 44% | viability, T/C (second compound 10 µM, first compound 0.0316 µM): 9.88% | viability, T/C (second compound 10 µM, first compound 0.1 µM): 9.9% | viability, T/C (second compound 10 µM, first compound 0.316 µM): 8.88% | viability, T/C (second compound 10 µM, first compound 1 µM): 9.21% | viability, T/C (second compound 10 µM, first compound 3.16 µM): 8.92% | viability, T/C (second compound 10 µM, first compound 10 µM): 12.2%
